The text below walks through data of PMC8395111 (International Journal of Molecular Sciences, 2021).

Each structure is given as a SMILES string. Where two headings read alike, the source gives them in different places. Square brackets hold non-standard residues; d marks the D form. Peptide text beside a SMILES is read from it.

The conditions of data set [1]: cited from earlier work. The text has this: The blood-brain barrier (BBB) is formed by a tightly sealed monolayer of endothelial cells, and the tight junctions between the endothelial cells are responsible for the barrier function of the BBB. Various drugs are discovered to treat central nervous system (CNS) disorders but fail to enter the market because of their inability to cross the BBB [19]. Vemurafenib, an antitumoral agent that is capable to pass the BBB, was approved in 2011. It inhibits the BRAF-serine/threonine-kinase and leads to a median survival of 13.6 months compared to 9.7 months upon treatment with dacarbazine [ ...

The conditions of data set [2]: pH 7.4.
Procedure: (§4) Spectra of tryptophan fluorescence were measured at room temperature with a Cary Eclipse fluorescence spectrophotometer of Varian (Salt Lake City, UT, USA). The excitation wavelength was set to 280 nm, and the slid-width was 10 nm. The emission was recorded between 300 nm and 410 nm.
(§5) Quenching of Tryptophan was carried out in the presence and absence of phospholipid liposomes (lipid-to-peptide ratio 25:1) using 0.1, 0.4 and 0.7 M acrylamide. The data were analyzed according to the Stern–Volmer equation (Equation (2)):(2) F0/F=1+KSV×[Q] where F0 and F represent the fluorescence emission intensities in the absence and presence of the quencher molecule (Q), and KSV is the Stern–Volmer quenching constant, which is a quantitative measure for the accessibility of tryptophan to acrylamide [80].
The test system of data set [3] is melanoma cell line SBcl-2. The format is cell-based. The conditions noted are these: SBcl-2, PI-uptake. How it is done:
(§1) To determine peptide-induced cell death, cells were resuspended in respective media (see Section 2.2) and diluted to a concentration of 1 × 10^6 cells/mL. 100 µL Aliquots (10^5 cells) were incubated with different peptide concentrations (5 µM to 100 µM) for up to 8 h in the presence of propidium iodide PI (2 µL/10^5 cells of 50 µg/mL, Molecular Probes Inc., Eugene, OR, USA) at room temperature in black 96-well plates. PI-uptake was measured after 0, 1, 2, 4 and 8 h using the GloMax® Multi+ Detection System (Promega, Madison, WI, USA). Cytotoxicity was calculated from the percentage of PI-positive cells in media alone (P0) and in the presence of peptide (PX) (see Equation (3)). Triton-X-100 was used to determine 100% of PI-positive cells (P100). (3) %PI−uptake=100×(PX−P0)/(P100−P0)
(§2) Excitation and emission wavelengths were 536 nm and 617 nm, respectively. The cytotoxicity of the peptides was further investigated in the presence of different serum types and amounts, as well as in the presence of protease inhibition.

The test system of data set [4] is glioblastoma cell line U-87 mg. Type of data set: cell-based. The settings on record: PI-uptake. How it is done: as §1, §2
In data set [5] the test system is glioblastoma cell line LN-229. Type of data set: cell-based. The settings on record: LN-229, PI-uptake. The procedure: as §1, §2
The nature of data set [6]: Tryptophan fluorescence and acrylamide quenching in buffer (solubility/aggregation). The conditions noted are these: for λ em,max / KSV (Stern–Volmer constant): PBS, mean ± SD, three experiments; for λ em,max: Trp fluorescence, excitation 280 nm, room temperature; for KSV (Stern–Volmer constant): acrylamide 0.1, 0.4, 0.7 M.
Procedure: as §4, §5
Data set [7] in a line: Propidium iodide-uptake toxicity assay, NHDF. The format is cell-based, human. The conditions noted are these: human, normal human dermal fibroblasts (NHDF), PI-uptake, fibroblast growth medium (2% FBS). The procedure:
as §1, with “([…])” for “(10^5 cells) were incubated with different peptide concentrations (5 µM to 100 µM)”
as §2

Data set [8] can be described thus: Ex vitro stability study in fetal bovine serum, SDS-PAGE. Type of data set: in vitro ADME. The settings on record: 50 µg peptide in 200 µL, 37 °C, Coomassie, at least two measurements. The procedure:
(§3) Peptide stability was tested in the presence of fetal bovine serum (FBS, Gibco®) and human serum (HS, Sigma-Aldrich, Deisenhofen, Germany). Therefore 50 µg of the peptide was mixed with 0 µL (0%), 4 µL (2%) and 20 µL (10%) pure FBS or HS and refilled with PBS buffer to a total volume of 200 µL and incubated for 1 day, 6 days and 7 days at 37 °C. Sample aliquots of 10 µL were taken before incubation (0 h) and after 1 h, 8 h, 24 h, 2 days and 7 days of incubation. The aliquots (10 µL) were immediately mixed with 10 µL 2 × loading sample buffer and stored at −20 °C. The collected samples of the stability studies were analyzed by SDS- polyacrylamide gel electrophoresis (BioRad, Mini-PROTEAN Tetra System). As a standard, the Ultra-low Range Molecular Weight Marker M3546 (Sigma-Aldrich, Deisenhofen, Germany) was used. Before use, the collected samples of the stability studies (10 µL aliquot + 10 µL 2 xLD), as well as the Ultra-Low Molecular Weight marker (ULMW), were brought to room temperature. A concentration series in the range of 0.5 µg, 1 µg and 2.5 µg peptide per 10 µL sample volume was prepared in PBS for each peptide. In total, 10 µL of the resulting samples (0.5 µg, 1 µg and 2.5 µg peptide) were mixed with 10 µL 2 × loading buffer. Afterwards, all samples (collected samples, ULMW, concentration series) were incubated at 95 °C for 10 min.

Data set [9] can be described thus: Ex vitro stability study in human serum, SDS-PAGE. The settings on record: 50 µg peptide in 200 µL, 37 °C, Coomassie. Type of data set: in vitro ADME. The procedure: as §3
A further data set deals with melanoma cell line A375. The format is cell-based. The settings on record: A375, PI-uptake, 10% FBS. How it is done:
as §1, §2
The standard growth medium used for cell line A375 was DMEM containing 10% fetal bovine serum (FBS). Before the study of peptide-induced cytotoxicity, cells were diluted to 10^5 cells/100 µL in DMEM containing 2% FBS. […]

For data set [10], the system named is normal human dermal fibroblasts NHDF. Nature of the data set: Propidium iodide-uptake toxicity assay, NHDF. The format is cell-based. The settings on record: 2–20 µM peptide, 8 h. The procedure: as §1, with “([…])” for “(10^5 cells) were incubated with different peptide concentrations (5 µM to 100 µM)”
as §2

Experiment in data set [11]: not given
This is another data set of the same source.

Where [12] appears, read: 2% FBS in PBS, up to 7 days (9D-RDP215 main series 2 days, repeat 7 days).
The mark [13] stands for this setting: 2% HS in PBS, 7 days, at least two measurements.

Take `CCCS(=O)(=O)Nc1ccc(F)c(C(=O)c2c[nH]c3ncc(-c4ccc(Cl)cc4)cc23)c1F` [Vemurafenib, vemurafenib]: in data set [1], the median survival is listed as 13.6 months.

In the case of `CN(C)/N=N/c1[nH]cnc1C(N)=O` [dacarbazine], the median survival in data set [1] is 9.7 months.

On to `CC[C@H](C)[C@H](NC(=O)[C@@H](CCCNC(=N)N)NC(=O)[C@H](Cc1c[nH]c2ccccc12)NC(=O)[C@H](N)Cc1ccccc1)C(=O)N[C@H](CCCNC(=N)N)C(=O)N[C@H](C(=O)N[C@H](CCCNC(=N)N)C(=O)N[C@H](CCCNC(=N)N)C(=O)N1CCC[C@H]1C(=O)N[C@H](CCCNC(=N)N)C(=O)N[C@H](CCCNC(=N)N)C(=O)N[C@H](C(=O)N[C@H](CCCNC(=N)N)C(=O)N[C@H](C(=O)N[C@H](CCCNC(=N)N)C(=O)N[C@@H](Cc1c[nH]c2ccccc12)C(=O)N[C@H](Cc1ccccc1)C(N)=O)[C@@H](C)CC)[C@@H](C)CC)[C@@H](C)CC` [9D-RDP215, 9D-R-DIM-P-LF11-215] (H-[dF]W[dR]I[dR]I[dR][dR]P[dR][dR]I[dR]I[dR]W[dF]-NH2), for which the “solubility / aggregation in buffer” value in [2] is “completely dissolved and not aggregated”. The “LC50 after 8 h” value was determined as 1.8 ± 0.1 µM in data set [3], 1.6 ± 0.1 µM in data set [4] and 1.4 ± 5.1 µM in data set [5]. In data set [6], the “λ em,max” value turned out to be 354 ± 0.5 nm. Further, the “KSV (Stern–Volmer constant)” value in [6] was found to be 27.0 ± 2.8 M⁻¹. Further, in data set [7], the half-maximal cytotoxic concentration (CC50) at 4 h came out at 58.8 ± 4.2 µM. In addition, it took 18.9 ± 1 µM to reach half-maximal cytotoxicity in data set [7] (CC50 at 8 h). Besides, the peptide degradation result in data set [8] (setting [12]) is on record as “no degradation”; in data set [8] (10% FBS in PBS, up to 7 days) it was “no degradation”; in [9] (setting [13]), “does not show any peptide degradation”; in [9] (10% HS in PBS, up to 7 days, at least two measurements), “does not show any peptide degradation”.

With `CC[C@H](C)[C@H](NC(=O)[C@H](CCCNC(=N)N)NC(=O)[C@@H](NC(=O)[C@H](CCCNC(=N)N)NC(=O)[C@H](CCCNC(=N)N)NC(=O)[C@@H]1CCCN1C(=O)[C@H](CCCNC(=N)N)NC(=O)[C@H](CCCNC(=N)N)NC(=O)[C@@H](NC(=O)[C@H](CCCNC(=N)N)NC(=O)[C@@H](NC(=O)[C@H](CCCNC(=N)N)NC(=O)[C@H](Cc1c[nH]c2ccccc12)NC(=O)[C@@H](N)Cc1ccccc1)[C@@H](C)CC)[C@@H](C)CC)[C@@H](C)CC)C(=O)N[C@@H](CCCNC(=N)N)C(=O)N[C@@H](Cc1c[nH]c2ccccc12)C(=O)N[C@@H](Cc1ccccc1)C(N)=O` [RDP215, R-DIM-P-LF11-215] (H-FWRIRIRRPRRIRIRWF-NH2), the λem,max with DPPS is 336 nm. Besides, the “LC50 after 8 h” value in [3] was 4.7 ± 0.4 µM. The “LC50 after 8 h” value in data set [4] amounted to 3.0 ± 0.1 µM. In data set [5], the “LC50 after 8 h” value was determined as 1.7 ± 0.1 µM. Besides, the “LC50 after 4 h” value in the data set with melanoma cell line A375 (4 h) is given as 17.1 ± 1.5 µM. In addition, the “LC50 after 8 h” value in the data set with melanoma cell line A375 (8 h) amounted to 3.8 ± 0.3 µM. Also, the “solubility / aggregation in buffer” value in data set [6] (PBS pH 7.4, concluded from Trp emission maximum and KSV) is “completely dissolved and not aggregated”. For the same compound, in [6], the “λ em,max” value was 356 ± 0 nm and the “KSV (Stern–Volmer constant)” value was determined as 24.7 ± 5.4 M⁻¹. Moreover, the “harm on NHDF cells (PI-uptake)” value in [10] is “no harm”. In data set [7], this compound returned a CC50 at 4 h of 99.1 ± 0.1 µM and a half-maximal cytotoxic concentration (CC50) at 8 h of 68.2 ± 1.8 µM. In addition, in data set [8] (setting [12]), the peptide degradation entry is “No degradation”. Further, in [8] (10% FBS in PBS, up to 7 days), the peptide degradation result is “No degradation”. Also, the peptide degradation result in data set [9] (2% HS in PBS, 1 h to 2 days) was “ongoing peptide degradation”. Further, the peptide degradation result in [9] (setting [13]) was “completely degraded”. For the same compound, the peptide degradation result in data set [9] (10% HS in PBS, 24 h, at least two measurements) is given as “completely degraded”. The decrease of KSV vs buffer in data set [11] was found to be 20.7 M⁻¹.

What is called CC50 is the concentration that lowers cell viability or growth by half. Read a high CC50 as lower toxicity to the cells.
